Experimental data from ChEMBL document CHEMBL1128893, “Synthesis and characterization of N-(acenaphth-5-yl)-N'-(4-methoxynaphth-1-yl)guanidine as a glutamate release inhibitor and potential anti-ischemic agent” (Bioorg Med Chem Lett, 1995).

Assays:
[1] = Inhibition of 45 [Ca2+] flux into rat brain synaptosomes depolarized by elevated potassium concentrations; format: functional, subcellular
Rattus norvegicus = species on record: Rattus norvegicus; assay: Compound was evaluated for the inhibition of K+ -evoked glutamate release through block of voltage-gated [Ca2+] -channels, in the rat brain synaptosomal preparations; format: functional, organism-based
[2] = biological target: T1, Sodium channel protein type 2 subunit alpha (Homo sapiens, UniProt Q99250); assay: (§1) Blockade of synaptosomal sodium channels, inhibition of [14C]guanidinium ion flux into CHO cells expressing Type II sodium channel; format: functional, cell-based
T1 sequence (Q99250 whole entry): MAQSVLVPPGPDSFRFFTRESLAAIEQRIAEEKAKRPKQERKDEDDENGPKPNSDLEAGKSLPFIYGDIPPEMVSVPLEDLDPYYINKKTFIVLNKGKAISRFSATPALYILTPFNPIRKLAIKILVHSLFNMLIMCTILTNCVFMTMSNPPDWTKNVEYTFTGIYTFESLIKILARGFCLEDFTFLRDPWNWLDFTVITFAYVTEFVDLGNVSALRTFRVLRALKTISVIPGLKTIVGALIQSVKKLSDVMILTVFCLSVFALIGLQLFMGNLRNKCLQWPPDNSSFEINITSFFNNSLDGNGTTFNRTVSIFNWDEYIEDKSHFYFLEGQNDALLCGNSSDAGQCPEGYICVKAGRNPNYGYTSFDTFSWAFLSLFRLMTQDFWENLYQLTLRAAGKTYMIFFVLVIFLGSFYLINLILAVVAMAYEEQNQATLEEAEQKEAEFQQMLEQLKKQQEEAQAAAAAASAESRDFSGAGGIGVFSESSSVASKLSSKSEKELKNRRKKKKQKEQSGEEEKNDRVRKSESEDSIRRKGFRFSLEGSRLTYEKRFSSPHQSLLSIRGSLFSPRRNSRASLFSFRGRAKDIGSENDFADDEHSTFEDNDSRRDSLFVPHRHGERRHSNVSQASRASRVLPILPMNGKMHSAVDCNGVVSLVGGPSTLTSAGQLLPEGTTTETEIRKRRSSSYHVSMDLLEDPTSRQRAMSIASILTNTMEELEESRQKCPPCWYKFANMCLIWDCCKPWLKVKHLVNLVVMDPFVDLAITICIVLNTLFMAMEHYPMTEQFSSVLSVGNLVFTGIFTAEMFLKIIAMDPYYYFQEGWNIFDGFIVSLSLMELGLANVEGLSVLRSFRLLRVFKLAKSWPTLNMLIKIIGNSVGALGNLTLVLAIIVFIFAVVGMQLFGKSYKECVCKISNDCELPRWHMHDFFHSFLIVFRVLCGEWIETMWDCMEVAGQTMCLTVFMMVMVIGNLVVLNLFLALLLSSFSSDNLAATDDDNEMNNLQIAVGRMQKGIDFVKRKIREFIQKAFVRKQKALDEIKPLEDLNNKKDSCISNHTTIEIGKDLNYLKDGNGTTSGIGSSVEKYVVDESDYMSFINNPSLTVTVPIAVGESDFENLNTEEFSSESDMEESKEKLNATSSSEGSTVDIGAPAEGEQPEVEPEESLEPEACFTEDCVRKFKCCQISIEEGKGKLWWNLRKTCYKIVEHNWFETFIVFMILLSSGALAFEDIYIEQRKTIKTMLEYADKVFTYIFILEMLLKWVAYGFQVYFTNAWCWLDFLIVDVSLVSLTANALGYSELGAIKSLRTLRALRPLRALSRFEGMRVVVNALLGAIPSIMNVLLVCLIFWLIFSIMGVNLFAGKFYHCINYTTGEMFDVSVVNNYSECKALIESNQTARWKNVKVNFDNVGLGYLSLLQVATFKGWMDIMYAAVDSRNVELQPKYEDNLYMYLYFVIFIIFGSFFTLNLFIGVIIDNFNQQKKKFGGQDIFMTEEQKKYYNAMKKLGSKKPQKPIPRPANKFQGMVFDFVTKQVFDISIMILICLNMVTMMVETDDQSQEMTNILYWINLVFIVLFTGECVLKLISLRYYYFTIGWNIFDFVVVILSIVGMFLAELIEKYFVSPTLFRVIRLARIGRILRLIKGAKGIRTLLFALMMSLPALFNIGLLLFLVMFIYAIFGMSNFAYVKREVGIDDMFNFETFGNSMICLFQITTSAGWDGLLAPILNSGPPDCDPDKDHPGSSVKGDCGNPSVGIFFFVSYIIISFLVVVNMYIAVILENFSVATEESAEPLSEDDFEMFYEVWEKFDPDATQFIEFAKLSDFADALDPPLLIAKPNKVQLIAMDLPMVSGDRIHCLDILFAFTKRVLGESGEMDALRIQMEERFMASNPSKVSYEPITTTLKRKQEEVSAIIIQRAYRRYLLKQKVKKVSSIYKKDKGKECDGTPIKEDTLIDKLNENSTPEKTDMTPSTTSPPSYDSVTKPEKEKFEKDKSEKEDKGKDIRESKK

[3] = biological target: T1, Sodium channel protein type 2 subunit alpha; assay: as §1
[4] = biological target: Sodium channel alpha subunits; brain (Types I, II, III) (Rattus norvegicus) (UniProt P04775+P04774+P08104); settings: at 3 µM
Description: Inhibition of veratridine-induced glutamate release, blockade of rat brain synaptosome voltage-gated sodium channels at 3 uM

IC50 [1] [nM]	IC50 (Rattus norvegicus) [nM]	IC50 [2] [nM]	Block [4] [%]	Compound	IC50 [3] [nM]
1130	800	2030		N=C(Nc1ccc2c3c(cccc13)CC2)Nc1ccc2c3c(cccc13)CC2	
				CN1CCN(c2ncc(-c3cc(Cl)cc(Cl)c3Cl)c(N)n2)CC1 [SIPATRIGINE]	2550
2240	1000	1310	87	COc1ccc(/N=C(\N)Nc2ccc3c4c(cccc24)CC3)c2ccccc12	
> 30000		2200	49	Nc1nc2ccc(OC(F)(F)F)cc2s1 [RILUZOLE]	
